Where two headings read alike, the source gives them in different places.
Target: T1, human TLR8 (Homo sapiens, UniProt Q9NR97)
T1 construct: expressed in transfected cells; host or cells: HEK-Blue Null1 cells, lentiviral infection
T1 sequence (Q9NR97 27-1041): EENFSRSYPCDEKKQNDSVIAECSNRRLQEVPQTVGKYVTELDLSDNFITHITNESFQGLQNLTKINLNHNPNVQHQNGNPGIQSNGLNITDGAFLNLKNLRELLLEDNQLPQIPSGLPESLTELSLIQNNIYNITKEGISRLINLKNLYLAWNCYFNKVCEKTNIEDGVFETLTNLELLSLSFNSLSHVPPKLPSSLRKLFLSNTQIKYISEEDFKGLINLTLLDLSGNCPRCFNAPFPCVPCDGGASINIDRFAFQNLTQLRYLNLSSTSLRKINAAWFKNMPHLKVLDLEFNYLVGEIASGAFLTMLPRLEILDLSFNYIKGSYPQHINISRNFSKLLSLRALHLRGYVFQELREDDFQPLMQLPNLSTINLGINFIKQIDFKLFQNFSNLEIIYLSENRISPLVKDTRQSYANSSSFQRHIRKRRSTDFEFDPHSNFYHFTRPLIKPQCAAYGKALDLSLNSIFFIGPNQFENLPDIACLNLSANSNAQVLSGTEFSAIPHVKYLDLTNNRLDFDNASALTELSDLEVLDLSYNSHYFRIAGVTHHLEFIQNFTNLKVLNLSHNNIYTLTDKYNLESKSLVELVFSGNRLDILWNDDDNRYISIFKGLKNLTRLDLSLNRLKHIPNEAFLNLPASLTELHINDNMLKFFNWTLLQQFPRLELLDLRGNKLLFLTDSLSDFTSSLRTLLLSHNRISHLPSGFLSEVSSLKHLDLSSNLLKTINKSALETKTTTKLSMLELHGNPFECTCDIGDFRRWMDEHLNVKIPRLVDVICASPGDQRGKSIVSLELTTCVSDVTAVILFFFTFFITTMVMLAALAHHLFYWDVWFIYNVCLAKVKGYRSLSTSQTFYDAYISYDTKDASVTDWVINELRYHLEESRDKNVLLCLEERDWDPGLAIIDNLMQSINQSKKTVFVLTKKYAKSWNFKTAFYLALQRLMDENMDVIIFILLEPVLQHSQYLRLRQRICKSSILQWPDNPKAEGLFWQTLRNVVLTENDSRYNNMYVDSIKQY
Assay: SEAP reporter assay in HEK-Blue TLR8 cells, R848-induced TLR8 signaling
Format: cell-based
Conditions: for inhibitory activity against TLR8 signaling: up to 20 μM
Experimental: SEAP reporter assay: HEK-Blue TLR8 cells were seeded in tissue culture treated 96-well plates with a density of 7.5×10^4 cells/well in DMEM media supplemented with 10% FBS (phosphatases deactivated with heat). […] Plates are then incubated in humidified incubators containing 5% CO2 at 37° C. for 24 h, after which, 30 μL of culture media was transfer to a new plate and 100 μL of Quanti-Blue (Invivogen) was added, the plate was then incubated at 37° C. till color change (30 min-1 h). Readout of absorbance at 620 nm was quantified using Beckman-Coulter DTX 880 Multimode Detector. […] SEAP assays for each sample were conducted with three biological replicates, each in triplicate.
To establish a robust high throughput assay for TLR8 inhibitors, the inventors first engineered a cell line stably overexpressing the human TLR8 whose activation can be reported by the Secreted Embryonic Alkaline Phosphatase (SEAP) assay. TLR8-overexpresing HEK-Blue cells were prepared by lentiviral infection of HEK-Blue Null1 cells that have null or low basal expression of endogenous TLR genes. […] The TLR8-mediated NF-κB activation can be assessed by measuring the SEAP activity.

[1] = 1(2H)-phthalazinone and quinoline derivatives in HEK-Blue hTLR8 cells
[2] = pyrazolo[1,5-a]pyrimidine derivatives in HEK-Blue hTLR8 cells, ± SD, at least three biological replicates
[3] = HEK-Blue TLR8 cells, R848 as agonist
[4] = quinoline derivatives in HEK-Blue hTLR8 cells, ± SD, at least three biological replicates

SMILES	IC50 [1] [µM]	other results
Cc1cc(-c2ccnc3cc(Cl)ccc23)ccc1O [CU-CPT9c, 4-(7-Chloro-4-quinolinyl)-2-methyl-phenol]		IC50: 0.001 ± 0.0002 µM
COc1ccc(-c2ccc(O)c(C)c2)c2ccccc12 [Compound 1, 1-Methoxy-4-(4-hydroxy-3-methylphenyl)-naphthalene]	7.03 ± 0.36	
Cc1cc(-c2ccc(O)c3ccccc23)ccc1O [Compound 2, 4-(4-Hydroxy-3-methylphenyl)-1-naphthol]	0.48 ± 0.43	
Cc1cc(-c2ccc(N)c3ccccc23)ccc1O [Compound 3, 1-Amino-4-(4-hydroxy-3-methylphenyl)-naphthalene]	2.72 ± 0.31	
CCOC(=O)c1cnn2c(-c3cccc(C(F)(F)F)c3)ccnc12 [Compound 3a]		IC50 [2]: 0.21 ± 0.043 µM
CCOC(=O)c1cnn2c(-c3cccc(C)c3)ccnc12 [Compound 3b]		IC50 [2]: 0.092 ± 0.015 µM
Cc1cc(-c2nn(C)c(=O)c3ccccc23)cc(C)c1O [Compound 4, 4-(4-Hydroxy-3,5-dimethylphenyl)-2-methyl-1(2H)-Phthalazinone]	0.17 ± 0.02	
Cc1cccc(-c2ccnc3c(C(=O)O)cnn23)c1 [Compound 4b]		inhibitory activity against TLR8 signaling: did not show any inhibitory activity
O=c1[nH]nc(-c2ccccc2)c2ccccc12 [Compound 5, 4-Phenyl-1(2H)-phthalazinone]	> 20	
Cn1nc(-c2ccccc2)c2ccccc2c1=O [Compound 6, 2-Methyl-4-phenyl-1(2H)-Phthalazinone]	> 20	
NC(=O)c1cnn2c(-c3cccc(C(F)(F)F)c3)ccnc12 [Compound 6a]		fold higher potency than 6c (HEK-Blue TLR8 cells): 2 fold; fold higher potency than 6d (HEK-Blue TLR8 cells): 10 fold; IC50 [3]: 0.13 µM
NC(=O)c1cnn2c(-c3ccccc3C(F)(F)F)ccnc12 [Compound 6c]		IC50 [2]: 0.23 ± 0.14 µM
NC(=O)c1cnn2c(-c3ccc(C(F)(F)F)cc3)ccnc12 [Compound 6d]		IC50 [2]: 1.22 µM
NC(=O)c1cnn2c(-c3ccccc3)ccnc12 [Compound 6e]		IC50 [3]: 0.76 µM
NC(=O)c1cnn2c(-c3cccc([N+](=O)[O-])c3)ccnc12 [Compound 6f]		IC50 [2]: 0.22 ± 0.07 µM
NC(=O)c1cnn2c(-c3cccc(F)c3)ccnc12 [Compound 6g]		IC50 [2]: 0.45 ± 0.09 µM
NC(=O)c1cnn2c(-c3cccc(Cl)c3)ccnc12 [Compound 6h]		IC50 [2]: 0.28 ± 0.1 µM
NC(=O)c1cnn2c(-c3cc(C(F)(F)F)cc(C(F)(F)F)c3)ccnc12 [Compound 6i]		IC50 [2]: 0.25 ± 0.13 µM
COc1ccccc1-c1ccnc2c(C(N)=O)cnn12 [Compound 6j]		IC50 [2]: 2.31 µM
COc1cccc(-c2ccnc3c(C(N)=O)cnn23)c1 [Compound 6k]		IC50 [2]: 1.2 µM
NC(=O)c1cnn2c(-c3cccnc3)ccnc12 [Compound 6l]		IC50 (HEK-Blue TLR8 cells): > 20 µM; IC50 [2]: > 20 µM
CCc1cccc(-c2ccnc3c(C(N)=O)cnn23)c1 [Compound 6m]		IC50 [2]: 0.12 ± 0.023 µM
CNC(=O)c1cnn2c(-c3cccc(C(F)(F)F)c3)ccnc12 [Compound 6n]		IC50 [2]: 1.7 µM; fold reduction in potency (secondary amide analog versus primary amide): 25 fold
CCN(CC)C(=O)c1cnn2c(-c3cccc(C(F)(F)F)c3)ccnc12 [Compound 6o]		inhibitory activity against TLR8 signaling: no significant activity
Cc1ccc(C)c(-c2n[nH]c(=O)c3ccccc23)c1 [Compound 7, 4-(2,5-Dimethylphenyl)-1(2H)-Phthalazinone]	> 20	
Cc1cc(C)cc(-c2n[nH]c(=O)c3ccccc23)c1 [Compound 8, 4-(3,5-Dimethylphenyl)-1(2H)-phthalazinone]	> 20	

SMILES	IC50 [1] [µM]	other results
COc1ccc(-c2n[nH]c(=O)c3ccccc23)cc1 [Compound 9, 4-(4-Methoxyphenyl)-1(2H)-phthalazinone]	> 20	
COc1ccc(-c2nn(C)c(=O)c3ccccc23)cc1 [Compound 10, 4-(4-Methoxyphenyl)-2-methyl-1(2H)-phthalazinone]	> 20	
COc1c(C)cc(-c2n[nH]c(=O)c3ccccc23)cc1C [Compound 11, 4-(4-Methoxy-3,5-dimethylphenyl)-1(2H)-phthalazinone]	> 20	
Cc1cc(-c2ccc(O)c(C)c2)c2ccccc2n1 [Compound 11c]		IC50 [4]: 0.086 ± 0.011 µM
Cc1cc(-c2cccc3ccccc23)ccc1O [Compound 11d]		IC50 [4]: > 20 µM
Cc1cc(-c2n[nH]c(=O)c3ccccc23)cc(C)c1C(=O)O [Compound 13, 4-(4-Carboxylic-3,5-dimethylphenyl)-1(2H)-phthalazinone]	> 20	
Cc1cc(-c2n[nH]c(=O)c3ccccc23)ccc1C(=O)O [Compound 14, 4-(4-Carboxylic-3-methylphenyl)-1(2H)-phthalazinone]	> 20	
O=c1[nH]nc(-c2ccccc2)c2ccccc12 [Compound 14a]		IC50 [4]: > 20 µM
Cc1cc(-c2n[nH]c(=O)c3ccccc23)ccc1O [Compound 14b]		IC50 [4]: 1.3 ± 0.32 µM
Cc1cc(-c2n[nH]c(=O)c3ccccc23)cc(C)c1N [Compound 15]	> 20	
COC(=O)c1ccc(-c2n[nH]c(=O)c3ccccc23)cc1C [Compound 16, 4-(4-Carbomethoxyl-3-methylphenyl)-1(2H)-phthalazinone]	8.51 ± 3.15	
CC(=O)Oc1c(C)cc(-c2n[nH]c(=O)c3ccccc23)cc1C [Compound 17, 4-(4-Acetoxy-3,5-dimethylphenyl)-1(2H)-phthalazinone]	4.76 ± 0.42	
CC(=O)Oc1ccc(-c2n[nH]c(=O)c3ccccc23)cc1C [Compound 18, 4-(4-Acetoxy-3-methylphenyl)-1(2H)-phthalazinone]	3.77 ± 0.45	
O=c1[nH]nc(-c2ccc(O)cc2)c2ccccc12 [Compound 19, 4-(4-Hydroxyphenyl)phthalazin-1(2H)-one]	> 20	
Cc1cc(-c2n[nH]c(=O)c3ccccc23)cc(C)c1O [Compound 20, 4-(4-Hydroxy-3,5-dimethylphenyl)-1(2H)-phthalazinone]	3.91 ± 0.2	
Cc1cc(-c2n[nH]c(=O)c3ccccc23)ccc1O [Compound 21, 4-(4-Hydroxy-3-methylphenyl)-1(2H)-phthalazinone]	1.3 ± 0.32	
CCc1cc(-c2n[nH]c(=O)c3ccccc23)ccc1O [Compound 22, 4-(4-Hydroxy-3-ethylphenyl)-1(2H)-phthalazinone]	2.73 ± 0.85	
CC(C)c1cc(-c2n[nH]c(=O)c3ccccc23)cc(C(C)C)c1O [Compound 23, 4-(4-Hydroxy-3,5-diisopropylphenyl)-1(2H)-phthalazinone]	> 20	
Cc1cc(-c2n[nH]c(=O)c3ccccc23)c(C)c(C)c1O [Compound 24, 4-(4-Hydroxy-2,3,5-trimethylphenyl)-1(2H)-phthalazinone]	> 20	
O=c1[nH]nc(-c2ccc(O)c3ccccc23)c2ccccc12 [Compound 25, 4-(4-Hydroxy-naphthyl)-1(2H)-phthalazinone]	> 20	
O=c1[nH]nc(-c2ccc(O)c(C(F)(F)F)c2)c2ccccc12 [Compound 26, 4-(4-Hydroxy-3-trifluoromethylphenyl)-1(2H)-phthalazinone]	> 20	
COc1ccc(-c2n[nH]c(=O)c3ccccc23)cc1C(F)(F)F [Compound 27, 4-(4-Methoxyl-3-trifluoromethylphenyl)-1(2H)-phthalazinone]	> 20	
N#Cc1cc(-c2n[nH]c(=O)c3ccccc23)ccc1O [Compound 28, 4-(4-Hydroxy-3-cyanophenyl)-1(2H)-phthalazinone]	> 20	
COc1ccc(-c2n[nH]c(=O)c3ccccc23)cc1[N+](=O)[O-] [Compound 29, 4-(4-Methoxyl-3-nitrophenyl)-1(2H)-phthalazinone]	> 20	
Cc1cc(-c2nn(C)c(=O)c3ccccc23)ccc1O [Compound 30, 4-(4-Hydroxy-3-methylphenyl)-2-methyl-1(2H)-phthalazinone]	0.33 ± 0.04	
CCn1nc(-c2ccc(O)c(C)c2)c2ccccc2c1=O [Compound 31, 4-(4-Hydroxy-3-methylphenyl)-2-ethyl-1(2H)-phthalazinone]	> 20	
